The test system of the experiment is P388 leukemia ip, CD2F1 mice, survival T/C. Description: NCI In Vivo Anticancer Drug Screen. Data for tumor model P388 Leukemia (intraperitoneal) in CD2F1 (CDF1) mice. The conditions noted are these: endpoint: median survival time, higher = longer survival. The gist of the method: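 Mice carrying the transplanted tumor received test compound or vehicle. Survival was recorded in each group, and the value is the treated-group measurement divided by that of the vehicle-treated control group.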

The mark [1] stands for this setting: dose: 50.0 mg/kg/injection, schedule: Q01DX005 (ip), vehicle: saline with Tween-80.
Setting [2] is: dose: 50.0 mg/kg/injection, schedule: Q01DX005 (ip), vehicle: Klucel (hydroxypropylcellulose) (HPC).
Setting [3] is: dose: 100.0 mg/kg/injection, schedule: Q01DX005 (ip), vehicle: Klucel (hydroxypropylcellulose) (HPC).
Setting [4] is: dose: 200.0 mg/kg/injection, schedule: Q01DX005 (ip), vehicle: Klucel (hydroxypropylcellulose) (HPC).
[5] abbreviates: dose: 12.5 mg/kg/injection, schedule: Q01DX005 (ip), vehicle: saline with Tween-80.
The mark [6] stands for this setting: dose: 25.0 mg/kg/injection, schedule: Q01DX005 (ip), vehicle: saline with Tween-80.

The structures appear in SMILES notation. Values joined by “and” are separate entries in the source; they are usually repeats but may differ in a detail not shown here. Equal entries are not always repeated. Toxic doses and inconclusive results are not listed.

In the case of `COC1(OC)OC2=C(OC1(OC)OC)c1ccccc1C2=O`, the T/C is, setting by setting: (dose: 7.5 mg/kg/injection, schedule: Q01DX005 (ip), vehicle: Klucel (hydroxypropylcellulose) (HPC)) 114 % of control; (dose: 15.0 mg/kg/injection, schedule: Q01DX005 (ip), vehicle: Klucel (hydroxypropylcellulose) (HPC)) 114 % of control and 122 % of control; (dose: 30.0 mg/kg/injection, schedule: Q01DX005 (ip), vehicle: Klucel (hydroxypropylcellulose) (HPC)) 114 % of control and 115 % of control; (dose: 60.0 mg/kg/injection, schedule: Q01DX005 (ip), vehicle: Klucel (hydroxypropylcellulose) (HPC)) 111 % of control and 115 % of control (2×).

Consider `COc1ccc(CC2c3cc(OC)c(OC)c(OC)c3CC[N+]2(C)C)cc1Oc1ccc(CC2c3cc4c(c(OC)c3CC[N+]2(C)C)OCO4)cc1` (configuration not stated), for which the T/C runs as follows: (dose: 1.56 mg/kg/injection, schedule: Q04DX003 (ip), vehicle: saline) 99 % of control; (dose: 3.13 mg/kg/injection, schedule: Q04DX003 (ip), vehicle: saline) 101 % of control.

Turning to `NCc1ccc(O)c(O)c1O`, the T/C is 121 % of control and 123 % of control (dose: 50.0 mg/kg/injection, schedule: Q01DX009 (ip), vehicle: saline); 118 % of control and 120 % of control (dose: 100.0 mg/kg/injection, schedule: Q01DX009 (ip), vehicle: saline); 124 % of control and 88 % of control (dose: 200.0 mg/kg/injection, schedule: Q01DX009 (ip), vehicle: saline).

Take `Fc1cccc(C(Nc2nncs2)Nc2nncs2)c1F`: the T/C under setting [1] is 99 % of control; the T/C (dose: 100.0 mg/kg/injection, schedule: Q01DX005 (ip), vehicle: saline with Tween-80) is 93 % of control; the T/C (dose: 200.0 mg/kg/injection, schedule: Q01DX005 (ip), vehicle: saline with Tween-80) was 93 % of control.

As for `O=C(O)CCCNS(=O)(=O)c1ccc(S(=O)(=O)NCCCC(=O)O)cc1`, the T/C was 99 % of control under setting [2], 103 % of control under setting [3] and 103 % of control under setting [4].

`C/C=C/c1ccccc1N/N=C(\Cl)C(=O)OCC`: the T/C (dose: 3.75 mg/kg/injection, schedule: Q01DX005 (ip), vehicle: saline with Tween-80) was 107 % of control; the T/C (dose: 7.5 mg/kg/injection, schedule: Q01DX005 (ip), vehicle: saline with Tween-80) was 99 % of control; the T/C under setting [5] was 99 % of control; the T/C (dose: 15.0 mg/kg/injection, schedule: Q01DX005 (ip), vehicle: saline with Tween-80) was 119 % of control; the T/C under setting [6] is 106 % of control; the T/C under setting [1] was 118 % of control. The T/C (dose: 50.0 mg/kg/injection, schedule: Q01DX009 (ip), vehicle: saline with Tween-80) was 117 % of control.

`CCOC(=O)/C=C/c1nc(C(=O)OCC)c(C)c(=O)[nH]1`: the T/C (dose: 1.0 mg/kg/injection, schedule: Q01DX009 (ip), vehicle: other) was 120 % of control; the T/C (dose: 2.0 mg/kg/injection, schedule: Q01DX009 (ip), vehicle: other) is 99 % of control; the T/C (dose: 4.0 mg/kg/injection, schedule: Q01DX009 (ip), vehicle: other) is 99 % of control; the T/C (dose: 8.0 mg/kg/injection, schedule: Q01DX009 (ip), vehicle: other) is 107 % of control; the T/C (dose: 16.0 mg/kg/injection, schedule: Q01DX009 (ip), vehicle: other) is 104 % of control and 95 % of control; the T/C (dose: 32.0 mg/kg/injection, schedule: Q01DX009 (ip), vehicle: other) is 95 % of control. In addition, the T/C reads like this: (dose: 64.0 mg/kg/injection, schedule: Q01DX009 (ip), vehicle: other) 92 % of control; (dose: 128.0 mg/kg/injection, schedule: Q01DX009 (ip), vehicle: other) 95 % of control; (dose: 200.0 mg/kg/injection, schedule: Q01DX009 (ip), vehicle: distilled water + Tween-80) 99 % of control; (dose: 256.0 mg/kg/injection, schedule: Q01DX009 (ip), vehicle: other) 113 % of control; (dose: 400.0 mg/kg/injection, schedule: Q01DX009 (ip), vehicle: distilled water + Tween-80) 100 % of control.

As for `Cc1ccc(O)c2c(NCCCCCCNc3cc(C)[n+](C)c4c(C)ccc(O)c34)cc(C)[n+](C)c12`, the T/C by setting is: under setting [5], 99 % of control; under setting [6], 112 % of control; under setting [1], 92 % of control.

`CC(NC(=O)C(CCCCN)N(C(=O)OCc1ccccc1)C(=O)OCc1ccccc1)C(=O)O` (configuration not stated) (tested in a mixture with another compound): the T/C by setting is: (dose: 50.0 mg/kg/injection, schedule: Q01DX005 (ip), vehicle: suspension in saline) 111 % of control; (dose: 100.0 mg/kg/injection, schedule: Q01DX005 (ip), vehicle: suspension in saline) 111 % of control; (dose: 200.0 mg/kg/injection, schedule: Q01DX005 (ip), vehicle: suspension in saline) 110 % of control.

Take `CCOC(=O)c1c(C)cc2ccccn12`: the T/C is, setting by setting: (dose: 60.0 mg/kg/injection, schedule: Q01DX005 (ip), vehicle: saline with Tween-80) 103 % of control; (dose: 120.0 mg/kg/injection, schedule: Q01DX005 (ip), vehicle: saline with Tween-80) 103 % of control; (dose: 240.0 mg/kg/injection, schedule: Q01DX005 (ip), vehicle: saline with Tween-80) 105 % of control.

Turning to `COC(=O)C1(C)CCCC2(C)C3CCC4CC3(C=C4CO)CCC12` (configuration not stated), the T/C runs as follows: (dose: 10.0 mg/kg/injection, schedule: Q01DX005 (ip), vehicle: Klucel (hydroxypropylcellulose) (HPC)) 108 % of control; (dose: 20.0 mg/kg/injection, schedule: Q01DX005 (ip), vehicle: Klucel (hydroxypropylcellulose) (HPC)) 100 % of control; (dose: 40.0 mg/kg/injection, schedule: Q01DX005 (ip), vehicle: Klucel (hydroxypropylcellulose) (HPC)) 100 % of control; (dose: 80.0 mg/kg/injection, schedule: Q01DX005 (ip), vehicle: Klucel (hydroxypropylcellulose) (HPC)) 93 % of control.

With `Cc1cc(C)c(C#N)c(SC(C(=O)Nc2cc(C(F)(F)F)ccc2Cl)c2ccccc2)n1` (configuration not stated), the T/C by setting is: (dose: 12.5 mg/kg/injection, schedule: Q01DX005 (ip), vehicle: Klucel (hydroxypropylcellulose) (HPC)) 90 % of control; (dose: 25.0 mg/kg/injection, schedule: Q01DX005 (ip), vehicle: Klucel (hydroxypropylcellulose) (HPC)) 89 % of control; under setting [2], 89 % of control and 90 % of control; under setting [3], 105 % of control; under setting [4], 105 % of control.

`COc1ccc(C(=O)NC(C(N)=O)C(N)=O)cc1`: the T/C was 99 % of control (dose: 100.0 mg/kg/injection, schedule: Q04DX003 (ip), vehicle: saline); 99 % of control (dose: 200.0 mg/kg/injection, schedule: Q04DX003 (ip), vehicle: saline); 97 % of control (dose: 400.0 mg/kg/injection, schedule: Q04DX003 (ip), vehicle: saline).

Regarding `O=C(c1ccccc1)C(C(c1ccccc1)N1CCOCC1)N1CCOCC1` (configuration not stated), the T/C by setting is: (dose: 100.0 mg/kg/injection, schedule: Q01DX009 (ip), vehicle: saline with Tween-80) 94 % of control; (dose: 200.0 mg/kg/injection, schedule: Q01DX009 (ip), vehicle: saline with Tween-80) 94 % of control; (dose: 400.0 mg/kg/injection, schedule: Q01DX009 (ip), vehicle: saline with Tween-80) 94 % of control.

For `Clc1cccc(Cl)c1C(Nc1nncs1)Nc1nncs1`, the T/C (dose: 50.0 mg/kg/injection, schedule: Q04DX002 (ip), vehicle: saline with Tween-80) is 124 % of control; the T/C (dose: 200.0 mg/kg/injection, schedule: Q04DX002 (ip), vehicle: saline with Tween-80) was 162 % of control and 174 % of control; the T/C (dose: 400.0 mg/kg/injection, schedule: Q04DX002 (ip), vehicle: saline with Tween-80) was 186 % of control and 192 % of control.

As for `Cc1ccc(/C=C/C(=O)C(C)(C)CN(C)CCN(C)C)cc1`, the T/C (dose: 60.0 mg/kg/injection, schedule: Q01DX005 (ip), vehicle: saline) was 103 % of control and the T/C (dose: 120.0 mg/kg/injection, schedule: Q01DX005 (ip), vehicle: saline) is 98 % of control.

With `COC1CC(CC2CCC(C)C(C(C)C(=O)O)O2)OC2(OC(C)(C3CCC(C)(C4OC(C5OC(O)(CO)C(C)CC5C)CC4C)O3)CC2C)C1C` (configuration not stated), the T/C was 103 % of control (dose: 0.08 mg/kg/injection, schedule: Q01DX009 (ip), vehicle: Klucel (hydroxypropylcellulose) (HPC)); 109 % of control (dose: 0.15 mg/kg/injection, schedule: Q01DX009 (ip), vehicle: Klucel (hydroxypropylcellulose) (HPC)); 104 % of control and 105 % of control and 107 % of control (dose: 0.31 mg/kg/injection, schedule: Q01DX009 (ip), vehicle: Klucel (hydroxypropylcellulose) (HPC)); 102 % of control and 123 % of control and 91 % of control (dose: 2.5 mg/kg/injection, schedule: Q01DX009 (ip), vehicle: Klucel (hydroxypropylcellulose) (HPC)); 100 % of control (dose: 5.0 mg/kg/injection, schedule: Q01DX009 (ip), vehicle: Klucel (hydroxypropylcellulose) (HPC)).

These data come from PubChem BioAssay AID330 (DTP/NCI, 2004).
